In patent publication US20170348398A1, “COMPOSITIONS AND METHODS FOR DECREASING BLOOD GLUCAGON LEVELS” (Vanderbilt University, priority 2016, published 2017):

Test system: α-cells
Assay: in vitro α-cell proliferation assay (cultured mouse islets, cytospin, Ki67+ glucagon+ counting)
Format: cell-based
Details: for alpha cell proliferation at high levels of the amino acid: high levels of the single amino acid; for α-cell proliferation when the amino acid is lowered to Gcgr+/+ serum levels: all other amino acids kept at high (Gcgr−/− serum) concentrations; for linear regression of amino acid concentration in media versus α-cell proliferation: media conditions of Table 1
From the text: To maximize the ability to quantify proliferating α-cells intact mouse islets were first cultured in media supplemented with Gcgr−/− or Gcgr+/+ mouse serum, dispersing the islets into cells, and then the cells centrifuged into a focused monolayer of cells using a cytospin centrifuge (FIG. 1A). […] To further maximize the throughput of this assay, a cytonuclear algorithm was developed to automate quantification of α-cell proliferation in cytospin islet images (FIG. 7C).
Pancreatic islets were isolated from male 8-14 week old C57B16/J mice (Jackson Laboratory, ME) and cultured in various media conditions for 3 days. […] For complete amino acid content in each media condition, see Table 1. For serum fractionation, serum was centrifuged for 1 hour at 2000×g at room temperature in a 10 kDa molecular weight cutoff spin column (Millipore, Billerica, Mass.). […] For lipid removal, serum was treated with Cleanascite reagent (Biotech Support Group, Monmouth Junction, N.J.) prior to islet culture at a 1:1 ratio according to the vendor's protocol.
Dispersed islet cells were recovered by centrifugation in RPMI media containing 5.6 mM glucose, 10% FBS, and 1% Penicillin/Streptomycin. The resulting cell pellet was resuspended in 100 ul of media and centrifuged onto a glass slide using a cytospin (Thermo Scientific, Waltham, Mass.) centrifuge. Air-dried slides were stored at −80° C. until use, thawed, and immediately fixed in 4% paraformaldehyde before immunocytochemistry. Slides were mounted with Aqua-Poly/Mount (Warrington, Pa.).
Cytospin slides were imaged using a Leica Microsystems Epifluorescent Microscope DM1 6000B. Tiled images were analyzed by a cytonuclear algorithm developed using the […] Software package (Indica Labs) (FIG. 7A). A glucagon surface was created by mapping glucagon immunoreactivity. DAPI and Ki67 positive cells were identified using a spot mapping algorithm. α-cells were identified by masking the glucagon surface on the DAPI staining and then creating a pseudospot where each α-cell was identified. Colocalization was determined by coregistering glucagon pseudospots with Ki67 spots. Each image was then manually checked for accuracy. For all islet culture experiments, a minimum of 500 α-cells counted per replicate (i.e. n=1) were required to be included in an experiment.

| Molecule | alpha cell proliferation at high levels of the amino acid | other results |
| --- | --- | --- |
| CC(C)[C@H](N)C(=O)O [valine] | not | – |
| NC(=O)CC[C@H](N)C(=O)O [L-glutamine] | – | α-cell proliferation when the amino acid is lowered to Gcgr+/+ serum levels: abolished the stimulation of α-cell proliferation; non α-cell proliferation (cultured mouse islets, 3 days): no effect; α-cell proliferation (cultured mouse islets, 3 days): in a dose-dependent fashion increased α-cell proliferation; linear regression of amino acid concentration in media versus α-cell proliferation: significantly and positively correlated |
| O=C(O)[C@@H]1CCCN1 [proline] | not | – |
| NCC(=O)O [glycine] | not | – |
| CC[C@H](C)[C@H](N)C(=O)O [isoleucine] | not | – |
| N[C@@H](CO)C(=O)O [serine] | not | – |
| NCCC[C@H](N)C(=O)O [ornithine] | not | α-cell proliferation (cultured mouse islets, 3 days): failed to stimulate α-cell proliferation |
| N[C@@H](Cc1ccc(O)cc1)C(=O)O [tyrosine] | not | – |
| CSCC[C@H](N)C(=O)O [methionine] | not | – |
| NCCCC[C@H](N)C(=O)O [lysine] | not | – |
| CC(C)C[C@H](N)C(=O)O [L-leucine] | – | α-cell proliferation when the amino acid is lowered to Gcgr+/+ serum levels: not required for increased α-cell proliferation; linear regression of amino acid concentration in media versus α-cell proliferation: significantly and positively correlated |
| N[C@@H](Cc1c[nH]cn1)C(=O)O [histidine] | not | – |
| N=C(N)NCCC[C@H](N)C(=O)O [arginine] | stimulated alpha cell proliferation | – |
| N[C@@H](CCC(=O)O)C(=O)O [L-glutamic acid] | – | α-cell proliferation when the amino acid is lowered to Gcgr+/+ serum levels: not required for increased α-cell proliferation; linear regression of amino acid concentration in media versus α-cell proliferation: significantly and positively correlated |
| NC(=O)C[C@H](N)C(=O)O [asparagine] | not | – |
| NC(=O)NCCC[C@H](N)C(=O)O [Citrulline] | – | α-cell proliferation (cultured mouse islets, 3 days): failed to stimulate α-cell proliferation |
| C[C@H](N)C(=O)O [alanine] | not | α-cell proliferation (cultured mouse islets, 3 days): failed to stimulate α-cell proliferation |
| activin A: Recombinant mouse Activin A protein (R&D Biosystems) (protein, UniProt Q04998 309-424, looked up, Inhibin beta A chain) Inhibin beta A chain: GLECDGKVNICCKKQFFVSFKDIGWNDWIIAPSGYHANYCEGECPSHIAGTSGSSLSFHSTVINHYRMRGHSPFANLKSCCVPTKLRPMSMLYYDDGQNIIKKDIQNMIVEECGCS | – | α-cell proliferation (cultured mouse islets, 3 days): did not stimulate α-cell proliferation |
